Our source for the IC50 and Activity values is ChEMBL document CHEMBL1141267, “Side-chain truncation of apicularen A by olefin cross-metathesis with ethylene” (J Nat Prod, 2007).

The source made the active and inactive calls. The rule behind the calls is not given here.

Experiment [1] is described as follows: Inhibition of tobacco hornworm V-ATPase. Also on record: species or system Manduca sexta.
The test system of a further experiment is L929. Description: Cytotoxicity against mouse L929 cells. In kind it is functional, cell-based.

In the case of `CC/C=C\C=C/C(=O)N/C=C/C[C@H]1C[C@H]2C[C@H](O)C[C@H](Cc3cccc(O)c3C(=O)O1)O2` [APICULAREN A], in experiment [1], it took 20 nM to reach half-maximal inhibition (IC50).

With `C=CC[C@H]1C[C@H]2C[C@H](O)C[C@H](Cc3cccc(O)c3C(=O)O1)O2`, the result in the experiment with L929 was inactive.
